Measured values as given in patent US10722501B2 (BAYER AKTIENGESELLSCHAFT, priority 2016, dated 2020).

The molecules below were run against T1, recombinant full-length human prolyl endopeptidase (PREP) (Homo sapiens, UniProt P48147) (assay: Biochemical human prolyl endopeptidase (PREP) assay with fluorescently labelled substrate). Conditions: substrate Z-Gly-Pro-AMC 50 μM, 32° C., 60 min; some as mean values from multiple independent determinations.
T1 construct: To recombinant full-length human prolyl endopeptidase (PREP, R&D-Systems, 4308-SE); purchased R&D-Systems 4308-SE
T1 sequence (P48147 1-710): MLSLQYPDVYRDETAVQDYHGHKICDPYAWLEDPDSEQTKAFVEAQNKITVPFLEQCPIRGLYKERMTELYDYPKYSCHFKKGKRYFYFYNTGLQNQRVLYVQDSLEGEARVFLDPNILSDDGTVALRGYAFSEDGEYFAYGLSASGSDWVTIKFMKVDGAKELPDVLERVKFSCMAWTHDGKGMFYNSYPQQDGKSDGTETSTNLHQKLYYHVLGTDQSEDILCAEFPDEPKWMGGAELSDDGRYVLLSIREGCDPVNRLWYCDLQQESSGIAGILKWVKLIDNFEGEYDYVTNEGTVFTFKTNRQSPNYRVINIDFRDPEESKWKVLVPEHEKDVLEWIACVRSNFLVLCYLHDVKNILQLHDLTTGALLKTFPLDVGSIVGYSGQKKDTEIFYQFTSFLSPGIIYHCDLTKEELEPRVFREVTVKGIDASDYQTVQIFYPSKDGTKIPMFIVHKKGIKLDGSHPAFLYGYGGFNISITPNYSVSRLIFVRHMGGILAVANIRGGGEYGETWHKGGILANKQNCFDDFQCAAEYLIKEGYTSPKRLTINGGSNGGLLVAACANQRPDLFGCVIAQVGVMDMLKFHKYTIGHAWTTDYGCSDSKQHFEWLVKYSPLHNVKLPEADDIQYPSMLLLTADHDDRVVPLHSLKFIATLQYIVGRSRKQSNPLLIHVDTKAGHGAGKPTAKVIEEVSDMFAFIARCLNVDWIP
Summary of the method: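 0.4 nM (final, example) recombinant PREP in pH 7.5 Tris buffer with EDTA, GSH, BSA and Brij-35; compounds at 1 nM to 30 μM. Reaction started with 50 μM Z-Gly-Pro-AMC and followed by fluorescence (ex 360/em 465 nm) at 32° C for 60 min. IC50 interpolated from percent activity based on initial slopes.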
Cc1ccc(Cn2nc3n(c2=O)[C@H](C(=O)N2CC(CF)C2)CCC3)cc1 [Example 146, (5S)-5-{[3-(Fluoromethyl)azetidin-1-yl]carbonyl}-2-(4-methylbenzyl)-5,6,7,8-tetrahydro[1,2,4]triazolo[4,3-a]pyridin-3(2H)-one] showed an IC50 of 0.93 nM. Cc1ccc(Cn2nc3n(c2=O)[C@H](C(=O)N2CC[C@@H]2C)CCC3)cc1 [Example 148, (5S)-5-{[(2S)-2-Methylazetidin-1-yl]carbonyl}-2-(4-methylbenzyl)-5,6,7,8-tetrahydro[1,2,4]triazolo[4,3-a]pyridin-3(2H)-one] was tested, and the IC50 was 21.3 nM. With Cc1ccc(Cn2nc3n(c2=O)[C@H](C(=O)N2CC(C(F)F)C2)CCC3)cc1 [Example 149, (5S)-5-{[3-(Difluoromethyl)azetidin-1-yl]carbonyl}-2-(4-methylbenzyl)-5,6,7,8-tetrahydro[1,2,4]triazolo[4,3-a]pyridin-3(2H)-one] the IC50 was 2.5 nM. Work on Cc1ccc(Cn2nc3n(c2=O)[C@H](C(=O)N2C[C@@H](F)[C@@H](F)C2)CCC3)cc1 [Example 150, (5S)-5-{[cis-3,4-Difluoropyrrolidin-1-yl]carbonyl}-2-(4-methylbenzyl)-5,6,7,8-tetrahydro[1,2,4]triazolo[4,3-a]pyridin-3(2H)-one] yielded an IC50 of 0.58 nM. Cc1ccc(Cn2nc3n(c2=O)[C@H](C(=O)N2CCCC2)CC3)cc1 [Example 157, (5S)-2-(4-Methylbenzyl)-5-(pyrrolidin-1-ylcarbonyl)-2,5,6,7-tetrahydro-3H-pyrrolo[2,1-c][1,2,4]triazol-3-one] was tested, and the IC50 was 1.3 nM. In the case of Cc1ccc(Cn2nc3n(c2=O)[C@H](C(=O)N2C[C@@H](O)[C@H](F)C2)CCC3)cc1 [Example 183, (5S)-5-{[(3R,4R)-3-Fluoro-4-hydroxypyrrolidin-1-yl]carbonyl}-2-(4-methylbenzyl)-5,6,7,8-tetrahydro[1,2,4]triazolo[4,3-a]pyridin-3(2H)-one], the IC50 is reported as 109 nM. O=C([C@@H]1CCCc2nn(CC3CC3)c(=O)n21)N1C[C@@H](F)[C@@H](F)C1 [Example 184, (5S)-2-(Cyclopropylmethyl)-5-{[(3R,4S)-3,4-difluoropyrrolidin-1-yl]carbonyl}-5,6,7,8-tetrahydro[1,2,4]triazolo[4,3-a]pyridin-3(2H)-one] was tested, and the IC50 was 4.5 nM. Work on O=C([C@@H]1CCCc2nn(Cc3ccnc(C(F)(F)F)c3F)c(=O)n21)N1CC2CC1C2 [Example 187, (5S)-5-(2-Azabicyclo[2.1.1]hex-2-ylcarbonyl)-2-{[3-fluoro-2-(trifluoromethyl)pyridin-4-yl]methyl}-5,6,7,8-tetrahydro[1,2,4]triazolo[4,3-a]pyridin-3(2H)-one] yielded an IC50 of 102 nM. Molecule Cc1ccc(Cn2nc3n(c2=O)[C@H](C(=O)N2CCC[C@H]2C(=O)CO)CCC3)cc1 [Example 190, (5S)-5-{[(2S)-2-Glycoloylpyrrolidin-1-yl]carbonyl}-2-(4-methylbenzyl)-5,6,7,8-tetrahydro[1,2,4]triazolo[4,3-a]pyridin-3(2H)-one] has an IC50 of 0.13 nM. Work on Cc1ccc(Cn2nc3n(c2=O)[C@H](C(=O)N2CC4(C2)CC4(F)F)CCC3)cc1 [Example 191, (5S)-5-[(1,1-Difluoro-5-azaspiro[2.3]hex-5-yl)carbonyl]-2-(4-methylbenzyl)-5,6,7,8-tetrahydro[1,2,4]triazolo[4,3-a]pyridin-3(2H)-one] yielded an IC50 of 2.8 nM. Work on Cc1ccc(Cn2nc3n(c2=O)[C@H](C(=O)N2CC(C)C2)CCC3)cc1 [Example 192, (5S)-5-[(3-Methylazetidin-1-yl)carbonyl]-2-(4-methylbenzyl)-5,6,7,8-tetrahydro[1,2,4]triazolo[4,3-a]pyridin-3(2H)-one] yielded an IC50 of 0.32 nM. In the case of Cc1ccc(Cn2nc3n(c2=O)[C@H](C(=O)N2CC(C)(F)C2)CCC3)cc1 [Example 195, (5S)-5-[(3-Fluoro-3-methylazetidin-1-yl)carbonyl]-2-(4-methylbenzyl)-5,6,7,8-tetrahydro[1,2,4]triazolo[4,3-a]pyridin-3(2H)-one], the IC50 is reported as 0.69 nM. Cc1ccc(Cn2nc3n(c2=O)[C@H](C(=O)N2CCC[C@H]2C=O)CCC3)cc1 [Example 196, (2S)-1-{[(5S)-2-(4-Methylbenzyl)-3-oxo-2,3,5,6,7,8-hexahydro[1,2,4]triazolo[4,3-a]pyridin-5-yl]carbonyl}pyrrolidine-2-carbaldehyde] was tested, and the IC50 was 0.4 nM. Molecule O=C([C@@H]1CCCc2nn(Cc3ccc(C(F)(F)F)nc3)c(=O)n21)N1CC2CC1C2 [Example 199, (5S)-5-(2-Azabicyclo[2.1.1]hex-2-ylcarbonyl)-2-{[6-(trifluoromethyl)pyridin-3-yl]methyl}-5,6,7,8-tetrahydro[1,2,4]triazolo[4,3-a]pyridin-3(2H)-one] has an IC50 of 59 nM. O=C([C@@H]1CCCc2nn(/C=C/c3ccc(F)cc3)c(=O)n21)N1CCCC1 [Example 204, (5S)-2-[(E)-2-(4-Fluorophenyl)vinyl]-5-(pyrrolidin-1-ylcarbonyl)-5,6,7,8-tetrahydro[1,2,4]triazolo[4,3-a]pyridin-3(2H)-one] showed an IC50 of 320 nM. In the case of O=C([C@@H]1CCCc2nn(Cc3ccc(C(F)F)nc3)c(=O)n21)N1CC[C@H](F)C1 [Example 206, (5S)-2-{[6-(Difluoromethyl)pyridin-3-yl]methyl}-5-{[(3S)-3-fluoropyrrolidin-1-yl]carbonyl}-5,6,7,8-tetrahydro[1,2,4]triazolo[4,3-a]pyridin-3(2H)-one], the IC50 is reported as 1.2 nM. In the case of O=C([C@@H]1CCCc2nn(Cc3ccc(C(F)F)nc3)c(=O)n21)N1C[C@@H](F)[C@@H](F)C1 [Example 207, (5S)-2-{[6-(Difluoromethyl)pyridin-3-yl]methyl}-5-{[(3R,4S)-3,4-difluoropyrrolidin-1-yl]carbonyl}-5,6,7,8-tetrahydro[1,2,4]triazolo[4,3-a]pyridin-3(2H)-one], the IC50 is reported as 4.2 nM. With O=C([C@@H]1CCCc2nn(Cc3ccc(C(F)F)nc3)c(=O)n21)N1CCC(F)(F)C1 [Example 208, (5S)-2-{[6-(Difluoromethyl)pyridin-3-yl]methyl}-5-[(3,3-difluoropyrrolidin-1-yl)carbonyl]-5,6,7,8-tetrahydro[1,2,4]triazolo[4,3-a]pyridin-3(2H)-one] the IC50 was 15 nM. O=C([C@@H]1CCCc2nn(Cc3ccc(C(F)F)nc3)c(=O)n21)N1CC(F)C1 [Example 209, (5S)-2-{[6-(Difluoromethyl)pyridin-3-yl]methyl}-5-[(3-fluoroazetidin-1-yl)carbonyl]-5,6,7,8-tetrahydro[1,2,4]triazolo[4,3-a]pyridin-3(2H)-one] gave an IC50 of 5.5 nM. O=C([C@@H]1CCCc2nn(Cc3ccc(Br)cc3)c(=O)n21)N1C[C@@H](F)[C@@H](F)C1 [Example 210, (5S)-2-(4-Bromobenzyl)-5-{[(3R,4S)-3,4-difluoropyrrolidin-1-yl]carbonyl}-5,6,7,8-tetrahydro[1,2,4]triazolo[4,3-a]pyridin-3(2H)-one] was tested, and the IC50 was 0.27 nM. For O=C([C@@H]1CCCc2nn(Cc3cccc(Br)c3)c(=O)n21)N1C[C@@H](F)[C@@H](F)C1 [Example 211, (5S)-2-(3-Bromobenzyl)-5-{[(3R,4S)-3,4-difluoropyrrolidin-1-yl]carbonyl}-5,6,7,8-tetrahydro[1,2,4]triazolo[4,3-a]pyridin-3(2H)-one], the IC50 was 0.15 nM. With O=C([C@@H]1CCCc2nn(Cc3ccc(Br)cc3)c(=O)n21)N1CC[C@H](F)C1 [Example 212, (5S)-2-(4-Bromobenzyl)-5-{[(3S)-3-fluoropyrrolidin-1-yl]carbonyl}-5,6,7,8-tetrahydro[1,2,4]triazolo[4,3-a]pyridin-3(2H)-one] the IC50 was 0.041 nM. Molecule O=C([C@@H]1CCCc2nn(Cc3cccc(Br)c3)c(=O)n21)N1CC[C@H](F)C1 [Example 213, (5S)-2-(3-Bromobenzyl)-5-{[(3S)-3-fluoropyrrolidin-1-yl]carbonyl}-5,6,7,8-tetrahydro[1,2,4]triazolo[4,3-a]pyridin-3(2H)-one] has an IC50 of 0.77 nM. With O=C([C@@H]1CCCc2nn(Cc3ccc(Br)cc3F)c(=O)n21)N1CC[C@H](F)C1 [Example 214, (5S)-2-(4-Bromo-2-fluorobenzyl)-5-{[(3S)-3-fluoropyrrolidin-1-yl]carbonyl}-5,6,7,8-tetrahydro[1,2,4]triazolo[4,3-a]pyridin-3(2H)-one] the IC50 was 0.2 nM. For O=C([C@@H]1CCCc2nn(Cc3ccc(Br)cc3F)c(=O)n21)N1C[C@@H](F)[C@@H](F)C1 [Example 215, (5S)-2-(4-Bromo-2-fluorobenzyl)-5-{[(3R,4S)-3,4-difluoropyrrolidin-1-yl]carbonyl}-5,6,7,8-tetrahydro[1,2,4]triazolo[4,3-a]pyridin-3(2H)-one], the IC50 was 0.53 nM. O=C([C@@H]1CC=Cc2nn(Cc3ccc(C(F)(F)F)nc3)c(=O)n21)N1CC[C@H](F)C1 [Example 276, (5S)-5-{[(3S)-3-Fluoropyrrolidin-1-yl]carbonyl}-2-{[6-(trifluoromethyl)pyridin-3-yl]methyl}-5,6-dihydro[1,2,4]triazolo[4,3-a]pyridin-3(2H)-one] was tested, and the IC50 was 3.6 nM.
